What was measured:
[1] = system: Heliothis virescens (Tobacco budworm); experiment: Heliothis virescens egg test on artificial diet; assay type: in vivo; details: for effect on mortality, feeding behavior, or growth regulation: same protocol, 200 ppm; for pest or weed control at 200 ppm: 96 h, 200 ppm (concentration in well 18 ppm), eggs 0-24 h old on artificial diet, egg mortality, larval mortality, growth regulation after 4 days, read-out: control of Heliothis virescens
Procedure: (§1) This Example illustrates the insecticidal and acaricidal properties of compounds of formula (I). The tests were performed as follows:
(§2) Cotton leaf discs were placed on agar in a 24-well microtiter plate and sprayed with test solutions at an application rate of 200 ppm. After drying, the leaf discs were infested with 5 L1 larvae. The samples were checked for mortality, feeding behavior, and growth regulation 3 days after treatment (DAT). The following compound gave at least 80% control of Spodoptera littoralis: A1, A2, A5, A6, A7, A8, A10, A11, A12, A13, A14, A15, A16, A17, A18, A19, A21, A22, A23, A24, A25, A30, A31, A32, A33, A34, A35, A39, A40, A41 A42, A43, A44, A45, A46, A47, A48, A49, A50, A51, A53, A54, A55, A59, A60, A61, A62. Heliothis virescens (Tobacco budworm): Eggs (0-24 h old) were placed in 24-well microtiter plate on artificial diet and treated with test solutions at an application rate of 200 ppm (concentration in well 18 ppm) by pipetting. After an incubation period of 4 days, samples were checked for egg mortality, larval mortality, and growth regulation. The following compound gave at least 80% control of Heliothis virescens: A1, A2, A3, A4, A5, A6, A7, A8, A10, A11, A12, A13, A14, A15, A16, A18, A19, A21, A22, A24, A25, A30, A31, A32, A33, A34, A35, A37, A38, A39, A40, A42, A43, A44, A45, A46, A47, A48, A49, A50, A51, A55, AA57, A58, A59, A60, A61, A62. Plutella xylostella (Diamond back moth): 24-well microtiter plate (MTP) with artificial diet was treated with test solutions at an application rate of 200 ppm (concentration in well 18 ppm) by pipetting. After drying, the MTP's were infested with L2 larvae (7-12 per well). After an incubation period of 6 days, samples were checked for larval mortality and growth regulation. The following compound gave at least 80% control of Plutella xylostella: A1, A2, A5, A6, A7, A8, A9, A10, A11, A12, A13, A14, A15, A16, A17, A18, A19, A20, A21, A22, A24, A25, A30, A31, A32, A33, A34, A35, A37, A38, A39, A40, A42, A43, A44, A45, A46, A47, A48, A49, A50, A51, A52, A53, A54, A55, A57, A58, A59, A60, A61, A62, B3. Diabrotica balteata (Corn root worm): A 24-well microtiter plate (MTP) with artificial diet was treated with test solutions at an application rate of 200 ppm (concentration in well 18 ppm) by pipetting. After drying, the MTP's were infested with L2 larvae (6-10 per well). After an incubation period of 5 days, samples were checked for larval mortality and growth regulation. The following compound gave at least 80% control of Diabrotica balteata: A1, A2, A5, A6, A7, A10, A11, A12, A13, A14, A15, A16, A17, A18, A19, A21, A22, A24, A25, A30, A31, A32, A33, A34, A35, A38, A39, A40, A42, A43, A44, A45, A46, A47, A48, A49, A50, A59, A60, A61, A62. Thrips tabaci (Onion thrips): Sunflower leaf discs were placed on agar in a 24-well microtiter plate and sprayed with test solutions at an application rate of 200 ppm. After drying, the leaf discs were infested with an […] population of mixed ages. After an incubation period of 7 days, samples were checked for mortality. The following compounds gave at least 80% control of Thrips tabaci: A1, A2, A5, A6, A7, A8, A10, A12, A13, A14, A15, A16, A17, A18, A19, A21, A24, A25, A30, A31, A32, A33, A34, A35, A39, A42, A43, A44, A45, A46, A47, A48, A49, A50, A51, A53, A54, A57, A58, A59, A60, A61, A62. Tetranychus urticae (Two-spotted spider mite): Bean leaf discs on agar in 24-well microtiter plates were sprayed with test solutions at an application rate of 200 ppm. After drying, the leaf discs are infested with mite populations of mixed ages. 8 days later, discs are checked for egg mortality, larval mortality, and adult mortality. The following compound gave at least 80% control of Tetranychus urticae: A1, A2, A4, A5, A6, A7, A8, A10, A11, A12, A13, A14, A15, A16, A17, A18, A19, A20, A21, A22, A30, A31, A32, A33, A34, A35, A39, A40, A41, A42, A43, A44, A45, A46, A47, A48, A49, A50, A51, A53, A54, A55, A57, A59, A60, A61, A62.

[2] = system: Tetranychus urticae (Two-spotted spider mite); experiment: Tetranychus urticae bean leaf disc spray test; assay type: in vivo; details: for effect on mortality, feeding behavior, or growth regulation: same protocol, 200 ppm; for pest or weed control at 200 ppm: foliar, 192 h, 200 ppm spray on bean leaf discs, mite populations of mixed ages, egg, larval and adult mortality 8 days later, read-out: control of Tetranychus urticae
Procedure: as §1, §2

SMILES | effect on mortality, feeding behavior, or growth regulation [1] | effect on mortality, feeding behavior, or growth regulation [2] | pest or weed control at 200 ppm [1] | pest or weed control at 200 ppm [2]
Cc1nc2c(C3=NOC(c4cc(Cl)cc(Cl)c4)(C(F)(F)F)C3)ccc(C(=O)NC3CS(=O)(=O)C3)c2o1 (centres unmarked) [A26] | little or no effect | little or no effect |  | 
Cc1nc2c(C3=NOC(c4cc(Cl)cc(Cl)c4)(C(F)(F)F)C3)ccc(C(=O)NC3C[S+]([O-])C3)c2o1 (centres unmarked) [A28] | little or no effect | little or no effect |  | 
O=C(NC1CSC1)c1ccc(C2=NOC(c3cc(Cl)cc(Cl)c3)(C(F)(F)F)C2)c2ccccc12 (centres unmarked) [A2] |  |  | ≥ 80% | ≥ 80%
Cc1cc(C2=NOC(c3cc(Cl)cc(Cl)c3)(C(F)(F)F)C2Cl)ccc1C(=O)NC1C[S+]([O-])C1 (centres unmarked) [A34] |  |  | ≥ 80% | ≥ 80%
O=C(NC1C[S+]([O-])C1)c1ccc(C2=NOC(c3cc(Cl)cc(Cl)c3)(C(F)(F)F)C2Br)c2ccccc12 (centres unmarked) [A44] |  |  | ≥ 80% | ≥ 80%
Cc1cc(C2=NCC(c3cc(Cl)cc(Cl)c3)(C(F)(F)F)C2)ccc1C(=O)NC1CSC1 (centres unmarked) [A49] |  |  | ≥ 80% | ≥ 80%
Cc1cc(N2CC(c3cc(Cl)cc(Cl)c3)(C(F)(F)F)OC2=O)ccc1C(=O)NC1CSC1 (centres unmarked) [A11] |  |  | ≥ 80% | ≥ 80%
